According to patent US12091426B2, “Bifunctional degraders of hematopoietic progenitor kinase and therapeutic uses thereof” (Nurix Therapeutics, Inc., priority 2021, dated 2024):

Biological target: T1, HPK1 (Homo sapiens, UniProt Q92918)
T1 construct: A HiBiT tag was introduced by CRISPR on the N terminus of HPK1 in Jurkat cells; host or cells: Jurkat cells (ATCC TIB-152), monoclonal line with CRISPR knock-in of HiBiT at the endogenous HPK1 locus
Assay: HPK1 Cellular HiBit Degradation Assay
Type: cell-based
Details: HiBiT HPK1 Jurkat cells, 24 hrs; for DC50: concentration at which 50% of HPK1 was remaining, read-out: DC50 Category; for Dmax: Jurkat, read-out: Dmax Category
Summary of the method: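 Jurkat cells with CRISPR knock-in N-terminal HiBiT-HPK1 were treated with CTMs (11-point, 3.16-fold, 10 uM to 0.1 nM final) for 24 hrs at 37° C. HiBiT lytic luminescence, with parental Jurkat as background and DMSO as 100%, gave % HPK1 remaining; four-parameter fit yielded DC50 and Dmax (100 minus lowest % remaining).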

[1] = maximum degradation vs DMSO vehicle control

T1 sequence (Q92918 whole entry): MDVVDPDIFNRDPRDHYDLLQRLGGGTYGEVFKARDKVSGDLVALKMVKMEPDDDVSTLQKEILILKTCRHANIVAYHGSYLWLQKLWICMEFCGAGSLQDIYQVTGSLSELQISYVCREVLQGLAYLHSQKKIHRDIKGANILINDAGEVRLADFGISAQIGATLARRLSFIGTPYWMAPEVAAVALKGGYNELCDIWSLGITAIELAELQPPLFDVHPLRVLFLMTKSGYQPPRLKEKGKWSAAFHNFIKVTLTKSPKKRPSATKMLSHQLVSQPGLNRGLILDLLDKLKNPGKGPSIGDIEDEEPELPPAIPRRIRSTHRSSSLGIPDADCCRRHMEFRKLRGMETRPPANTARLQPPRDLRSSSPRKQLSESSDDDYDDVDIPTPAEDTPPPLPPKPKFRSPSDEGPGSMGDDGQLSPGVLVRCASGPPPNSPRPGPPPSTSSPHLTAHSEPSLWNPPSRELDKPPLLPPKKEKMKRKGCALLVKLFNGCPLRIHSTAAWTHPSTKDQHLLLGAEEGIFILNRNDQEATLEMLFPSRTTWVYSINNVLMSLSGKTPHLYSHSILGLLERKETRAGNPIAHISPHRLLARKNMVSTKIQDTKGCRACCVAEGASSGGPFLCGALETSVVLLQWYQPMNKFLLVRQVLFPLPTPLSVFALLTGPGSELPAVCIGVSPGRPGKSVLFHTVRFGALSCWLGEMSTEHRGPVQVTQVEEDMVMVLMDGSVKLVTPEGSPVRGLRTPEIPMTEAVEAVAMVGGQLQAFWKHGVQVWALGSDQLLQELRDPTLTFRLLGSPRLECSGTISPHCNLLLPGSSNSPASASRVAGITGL

Compound	DC50	Dmax [1]	Dmax Category [1]
CC(C)n1cnc2cc(-c3ccc4c(c3)N([C@H]3C[C@@H](N5CCCCC5)C3)C(=O)C43CCN(C(=O)C4CCN(C(=O)[C@H]5CC[C@H](C(=O)N6CCc7ccc(C8CCC(=O)NC8=O)cc7C6)CC5)CC4)CC3)nc(Nc3ccccc3F)c21 (mixture of isomers) [Example 50, (3RS)-3-{2-[(1R,4R)-4-{4-[(6-{4-[(2-fluorophenyl)amino]-3-(propan-2-yl)-3H-imidazo[4,5-c]pyridin-6-yl}-2-oxo-1-[(1S,3S)-3-(piperidin-1-yl)cyclobutyl]-1,2-dihydrospiro[indole-3,4′-piperidin]-1′-yl)carbonyl]piperidine-1-carbonyl}cyclohexanecarbonyl]-1,2,3,4-tetrahydroisoquinolin-7-yl}piperidine-2,6-dione]	< 0.1 µM	70 to 85%	
CC(C)n1cnc2cc(-c3ccc4c(c3)N([C@H]3C[C@@H](N5CCCCC5)C3)C(=O)C43CCN(C(=O)[C@H]4CCN(C(=O)C5CCN(c6ccc(C7CCC(=O)NC7=O)cn6)CC5)C4)CC3)nc(Nc3ccccc3F)c21 (mixture of isomers) [Example 33, (3RS)-3-(6-{4-[(3S)-3-[(6-{4-[(2-fluorophenyl)amino]-3-(propan-2-yl)-3H-imidazo[4,5-c]pyridin-6-yl}-2-oxo-1-[(1S,3S)-3-(piperidin-1-yl)cyclobutyl]-1,2-dihydrospiro[indole-3,4′-piperidin]-1′-yl)carbonyl]pyrrolidine-1-carbonyl]piperidin-1-yl}pyridin-3-yl)piperidine-2,6-dione]	< 0.1 µM	70 to 85%	
CC(C)n1cnc2cc(-c3ccc4c(c3)N([C@H]3C[C@@H](N5CCCCC5)C3)C(=O)C43CCN(C(=O)C4CCN(C(=O)[C@H]5CC[C@H](N(C)c6ccc(C7CCC(=O)NC7=O)cn6)CC5)CC4)CC3)nc(Nc3ccccc3F)c21 (mixture of isomers) [Example 131, (3RS)-3-(6-{methyl[(1R,4R)-4-{4-[(6-{4-[(2-fluorophenyl)amino]-3-(propan-2-yl)-3H-imidazo[4,5-c]pyridin-6-yl}-2-oxo-1-[(1S,3S)-3-(piperidin-1-yl)cyclobutyl]-1,2-dihydrospiro[indole-3,4′-piperidin]-1′-yl)carbonyl]piperidine-1-carbonyl}cyclohexyl]amino}pyridin-3-yl)piperidine-2,6-dione]	< 0.1 µM	70 to 85%	
CC(C)n1cnc2cc(-c3ccc4c(c3)N([C@H]3C[C@@H](N5CCCCC5)C3)C(=O)C43CCN(C(=O)C4CCN(C(=O)[C@H]5CC[C@H](Oc6ccc(C7CCC(=O)NC7=O)cn6)CC5)CC4)CC3)nc(Nc3ccccc3F)c21 (mixture of isomers) [Example 62, (3RS)-3-(6-{[(1R,4R)-4-{4-[(6-{4-[(2-fluorophenyl)amino]-3-(propan-2-yl)-3H-imidazo[4,5-c]pyridin-6-yl}-2-oxo-1-[(1S,3S)-3-(piperidin-1-yl)cyclobutyl]-1,2-dihydrospiro[indole-3,4′-piperidin]-1′-yl)carbonyl]piperidine-1-carbonyl}cyclohexyl]oxy}pyridin-3-yl)piperidine-2,6-dione]	0.1 to 0.5 µM	50 to 70%	
CC(C)n1cnc2cc(-c3ccc4c(c3)N([C@H]3C[C@@H](N5CCCCC5)C3)C(=O)C43CCN(C(=O)[C@@H]4CCN(C(=O)[C@H]5CC[C@H](Oc6ccc(C7CCC(=O)NC7=O)cn6)CC5)C4)CC3)nc(Nc3ccccc3F)c21 (mixture of isomers) [Example 17, (3RS)-3-(6-{1[(1R,4R)-4-[(3R)-3-[(6-{4-[(2-fluorophenyl)amino]-3-(propan-2-yl)-3H-imidazo[4,5-c]pyridin-6-yl}-2-oxo-1-[(1S,3S)-3-(piperidin-1-yl)cyclobutyl]-1,2-dihydrospiro[indole-3,4′-piperidin]-1′-yl)carbonyl]pyrrolidine-1-carbonyl]cyclohexyl]oxy}pyridin-3-yl)piperidine-2,6-dione]	< 0.1 µM	> 85%	
CC(C)n1cnc2cc(-c3ccc4c(c3)N(C3CC(N5CCCCC5)C3)C(=O)C43CCN(C(=O)C4(C)CCN(C(=O)C5(C)CCN(c6ccc(C7CCC(=O)NC7=O)cn6)CC5)CC4)CC3)nc(NC3CC3)c21 (racemic) [Example 151, (3RS)-3-(6-{4-[4-({6-[4-(cyclopropylamino)-3-isopropylimidazo[4,5-c]pyridin-6-yl]-2-oxo-1-[(1S,3S)-3-(piperidin-1-yl)cyclobutyl]spiro[indole-3,4′-piperidin]-1′-yl}carbonyl)-4-methylpiperidine-1-carbonyl]-4-methylpiperidin-1-yl}pyridin-3-yl)piperidine-2,6-dione]	< 0.1 µM		B (B: >70%-<85%)

Second part, led by results:

DC50	Dmax [1]	Compound	Dmax Category [1]
0.1 to 0.5 µM	50 to 70%	COC1CC(C(=O)N2CCC3(CC2)C(=O)N([C@H]2C[C@@H](N4CCCCC4)C2)c2cc(-c4cc5ncn(C(C)C)c5c(NC5CC5)n4)ccc23)CN(C(=O)C2CCN(c3ccc(C4CCC(=O)NC4=O)cn3)CC2)C1 (mixture of isomers) [Example 256, (3RS)-3-(6-{4-[3-({6-[4-(cyclopropylamino)-3-(propan-2-yl)-3H-imidazo[4,5-c]pyridin-6-yl]-2-oxo-1-[(1S,3S)-3-(piperidin-1-yl)cyclobutyl]-1,2-dihydrospiro[indole-3,4′-piperidin]-1′-yl}carbonyl)-5-methoxypiperidine-1-carbonyl]piperidin-1-yl}pyridin-3-yl)piperidine-2,6-dione]	
< 0.1 µM	70 to 85%	CC(C)n1cnc2cc(-c3ccc4c(c3)N([C@H]3C[C@@H](N5CCCCC5)C3)C(=O)C43CCN(C(=O)C4CCN(C(=O)C5CCN(c6ccc(C7CCC(=O)NC7=O)cn6)CC5)C5(CC5)C4)CC3)nc(NC3CC3)c21 (mixture of isomers) [Example 269, (3RS)-3-(6-{4-[7-({6-[4-(cyclopropylamino)-3-(propan-2-yl)-3H-imidazo[4,5-c]pyridin-6-yl]-2-oxo-1-[(1S,3S)-3-(piperidin-1-yl)cyclobutyl]-1,2-dihydrospiro[indole-3,4′-piperidin]-1′-yl}carbonyl)-4-azaspiro[2.5]Octane-4-carbonyl]piperidin-1-yl}pyridin-3-yl)piperidine-2,6-dione]	
< 0.1 µM	70 to 85%	CC(C)n1cnc2cc(-c3ccc4c(c3)N([C@H]3C[C@@H](N5CCCCC5)C3)C(=O)C43CCN(C(=O)C4CN(C(=O)C5CCN(c6ccc(C7CCC(=O)NC7=O)cn6)CC5)CC(C)(C)C4)CC3)nc(NC3CC3)c21 (mixture of isomers) [Example 250, (3RS)-3-(6-{4-[5-({6-[4-(cyclopropylamino)-3-(propan-2-yl)-3H-imidazo[4,5-c]pyridin-6-yl]-2-oxo-1-[(1S,3S)-3-(piperidin-1-yl)cyclobutyl]-1,2-dihydrospiro[indole-3,4′-piperidin]-1′-yl}carbonyl)-3,3-dimethylpiperidine-1-carbonyl]piperidin-1-yl}pyridin-3-yl)piperidine-2,6-dione]	
< 0.1 µM	> 85%	CC(C)Nc1nc(-c2ccc3c(c2)N([C@H]2C[C@@H](N4CCCCC4)C2)C(=O)C32CCN(C(=O)C3(C)CCN(C(=O)C4CCN(c5ccc(C6CCC(=O)NC6=O)cn5)CC4)CC3)CC2)cc2ncn(C(C)C)c12 (some centres unmarked) [Example 166]	
